Results published in patent US9115151B2, “Substituted 2,10-dihydro-9-oxa-1,2,4A-triazaphenanthren-3-ones and uses thereof” (AbbVie Inc., priority 2012, dated 2015).
Counter-ions that a name gives are not always drawn.

Assays:
[1] = test system: CD3/CD28 induced IL-2 in human T-Blasts; test: T-Blasts CD3/CD28 induced IL-2 assay; format: cell-based; details: read-out: CD3/CD28-stimulated IL2 in T-blasts EC50
In short: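 PHA-generated human T-blasts, 2×10^5 per well, preincubated 30 min with 8-point 1/3 compound dilutions in duplicate, then stimulated with anti-CD3+anti-CD28 (5 μg/mL final) for 24 h at 37° C. Supernatant IL-2 measured; MTT toxicity run on remaining cells.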

[2] = target: T1, PKCθ (Homo sapiens, UniProt Q04759); test: In vitro enzyme assay (time-resolved fluorescence kinase assay), PKCθ, 100 μM ATP; format: biochemical
T1 construct: His6; purchased Millipore; host or cells: baculovirus in Sf21 cells
T1 sequence (Q04759 whole entry): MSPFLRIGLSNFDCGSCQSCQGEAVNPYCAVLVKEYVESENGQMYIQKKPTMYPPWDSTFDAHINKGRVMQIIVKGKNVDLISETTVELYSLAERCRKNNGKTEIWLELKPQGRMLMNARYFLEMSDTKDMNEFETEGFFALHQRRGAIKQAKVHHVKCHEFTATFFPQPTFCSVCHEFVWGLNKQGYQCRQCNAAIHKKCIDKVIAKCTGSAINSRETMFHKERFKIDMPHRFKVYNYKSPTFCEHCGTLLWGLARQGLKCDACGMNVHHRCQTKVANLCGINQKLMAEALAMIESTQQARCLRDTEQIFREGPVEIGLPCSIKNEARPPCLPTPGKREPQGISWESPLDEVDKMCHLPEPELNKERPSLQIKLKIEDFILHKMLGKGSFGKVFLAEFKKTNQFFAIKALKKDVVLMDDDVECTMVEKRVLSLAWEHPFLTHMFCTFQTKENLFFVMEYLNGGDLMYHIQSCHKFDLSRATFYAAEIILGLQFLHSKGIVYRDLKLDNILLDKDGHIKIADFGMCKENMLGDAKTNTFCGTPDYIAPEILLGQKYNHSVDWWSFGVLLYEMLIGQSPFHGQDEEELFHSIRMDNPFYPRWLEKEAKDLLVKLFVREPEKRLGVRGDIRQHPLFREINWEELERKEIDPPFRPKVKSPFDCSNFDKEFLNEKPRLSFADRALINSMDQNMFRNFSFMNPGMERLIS
In short: (§1)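 Read-out was time-resolved fluorescence, corrected for a minus-enzyme blank and converted to percent activity relative to enzyme without drug. They were stopped with EDTA.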

[3] = target: T2, PKCα (Homo sapiens, UniProt P17252); test: In vitro enzyme assay (time-resolved fluorescence kinase assay), PKCα, 100 μM ATP; format: biochemical; details: 100 μM ATP; read-out: PKCα enzyme IC50
T2 construct: His6; purchased Millipore; host or cells: baculovirus in Sf21 cells
In short: as §1

## CC(C)N1CC(C)(N(C)c2cc3c(cc2-c2ccccc2)OCC2=NNC(=O)C(C)N23)C1 (stereo not drawn) [Example 91]
[1]
  EC50: < 250 nM
[2]
  IC50: < 250 nM
[3]
  IC50: 250 to 1000 nM

## CCN(c1cc2c(cc1-c1ccccc1F)OCC1=NNC(=O)C(C)N12)C1(C)CN(C)C1 (stereo not drawn) [Example 166, 6-[(1,3-Dimethyl-azetidin-3-yl)-ethyl-amino]-7-(2-fluoro-phenyl)-4-methyl-2,10-dihydro-9-oxa-1,2,4a-triaza-phenanthren-3-one hydrochloride acid]
[1]
  EC50: < 250 nM
[2]
  IC50: < 250 nM
[3]
  IC50: < 250 nM

## C[C@@H]1C(=O)NN=C2COc3ccc([C@H](C)C4CNC4)cc3N21 [Example 111]
[1]
  EC50: 250 to 1000 nM
[2]
  IC50: < 250 nM
[3]
  IC50: 1000 to 10000 nM

## CC(C)c1cc2c(cc1[C@@H]1CCN(C)C[C@@H]1C)N1C(=NNC(=O)[C@H]1C)CO2 [Example 244]
[1]
  EC50: < 250 nM
[2]
  IC50: < 250 nM
[3]
  IC50: 250 to 1000 nM

## CC1C(=O)NN=C2COc3cc(-c4ccccc4)c(OC4CNC4)cc3N21 (stereo not drawn) [Example 66]
[1]
  EC50: < 250 nM
[2]
  IC50: < 250 nM
[3]
  IC50: 1000 to 10000 nM

## C[C@@H]1C(=O)NN=C2COc3cc(-c4ccc(Cl)cc4Cl)c(NC4CNC4)cc3N21 [Example 8]
[1]
  EC50: < 250 nM
[2]
  IC50: < 250 nM
[3]
  IC50: 1000 to 10000 nM

## CC1C(=O)NN=C2COc3cc(-c4ccc5ccccc5c4)c(NC4CNC4)cc3N21 (racemic) [Example 36]
[1]
  EC50: < 250 nM
[2]
  IC50: < 250 nM
[3]
  IC50: 1000 to 10000 nM

## CC1C(=O)NN=C2COc3cc(-c4ccc(Cl)cc4Cl)c(NC4CNC4)cc3N21 (racemic) [Example 43]
[1]
  EC50: < 250 nM
[2]
  IC50: < 250 nM
[3]
  IC50: 1000 to 10000 nM

## C[C@@H]1C(=O)NN=C2COc3cc(-c4ccccc4F)c([C@@H](C)C4(C)CN(CC5CCOCC5)C4)cc3N21 [Example 142]
[1]
  EC50: 250 to 1000 nM
[2]
  IC50: < 250 nM
[3]
  IC50: 1000 to 10000 nM

## C[C@@H]1C(=O)NN=C2COc3cc(C(F)(F)F)c([C@@H](C)C4(C)CNC4)cc3N21 (single isomer, unassigned) [Example 147-1, trifluoroacetic acid]
[1]
  EC50: < 250 nM
[2]
  IC50: < 250 nM
[3]
  IC50: 250 to 1000 nM

## C[C@@H]1C(=O)NN=C2COc3cc(-c4ccccc4C(C)(C)O)c([C@@H](C)C4(C)CN(C)C4)cc3N21 [Example 137, (R)-6-[(R)-1-(1,3-Dimethyl-azetidin-3-yl)-ethyl]-7-[2-(1-hydroxy-1-methyl-ethyl)-phenyl]-4-methyl-2,10-dihydro-9-oxa-1,2,4a-triaza-phenanthren-3-one]
[1]
  EC50: 250 to 1000 nM
[2]
  IC50: < 250 nM
[3]
  IC50: 1000 to 10000 nM

## C[C@@H]1C(=O)NN=C2COc3cc(-c4ccc(F)cc4F)c(NC4CNC4)cc3N21 [Example 4]
[1]
  EC50: < 250 nM
[2]
  IC50: < 250 nM
[3]
  IC50: 1000 to 10000 nM

## CC(C)c1cc2c(cc1OC1(C)CNC1)N1C(=NNC(=O)[C@H]1C)CO2 (single isomer, unassigned) [Example 121-2, trifluoroacetic acid]
[1]
  EC50: 1000 to 10000 nM
[2]
  IC50: 250 to 1000 nM
[3]
  IC50: 1000 to 10000 nM

## C[C@@H]1C(=O)NN=C2COc3cc(-c4ccc(OC(F)(F)F)cc4)c(NC4CNC4)cc3N21 [Example 11]
[1]
  EC50: < 250 nM
[2]
  IC50: 250 to 1000 nM
[3]
  IC50: 1000 to 10000 nM

## CC1C(=O)NN=C2COc3cc(C(C)C(F)(F)F)c(NC4CNC4)cc3N21 (stereo not drawn) [Example 112, 9-(Azetidin-3-ylamino)-1-methyl-8-(1,1,1-trifluoropropan-2-yl)-3,5-dihydrobenzo[5,6][1,4]oxazino[3,4-c][1,2,4]triazin-2(1H)-one trifluoroacetic acid salt]
[1]
  EC50: 1000 to 10000 nM
[2]
  IC50: 1000 to 10000 nM
[3]
  IC50: 1000 to 10000 nM

## C[C@@H]1C(=O)NN=C2COc3cc4ccn(C5(C)CNC5)c4cc3N21 [Example 148, (R)-1-Methyl-10-(3-methyl-azetidin-3-yl)-3,5-dihydro-10H-6-oxa-3,4,10,11b-tetraaza-cyclopenta[b]phenanthren-2-one hydrochloride]
[1]
  EC50: < 250 nM
[2]
  IC50: < 250 nM
[3]
  IC50: 250 to 1000 nM

## CC(C)Cc1cc2c(cc1NC1CNC1)N1C(=NNC(=O)C1C)CO2 (stereo not drawn) [Example 58]
[1]
  EC50: < 250 nM
[2]
  IC50: < 250 nM
[3]
  IC50: 1000 to 10000 nM

## C[C@@H]1C(=O)NN=C2COc3cc(-c4ccccc4F)c(N(C)[C@]4(C)CCN(C)C4)cc3N21 (single isomer, unassigned) [Example 198-4]
[1]
  EC50: < 250 nM
[2]
  IC50: < 250 nM
[3]
  IC50: 250 to 1000 nM

## CC(C)c1cc2c(cc1OC1CNC1)N1C(=NNC(=O)C1C)CO2 (stereo not drawn) [Example 68, 6-(Azetidin-3-yloxy)-7-isopropyl-4-methyl-2,10-dihydro-9-oxa-1,2,4a-triaza-phenanthren-3-one trifluoroacetic acid]
[1]
  EC50: 250 to 1000 nM
[2]
  IC50: 250 to 1000 nM
[3]
  IC50: 1000 to 10000 nM

## CC1C(=O)NN=C2COc3cc(-c4ccccc4)c(N(C)C4(C)CN(C5CCOCC5)C4)cc3N21 (stereo not drawn) [Example 94]
[1]
  EC50: < 250 nM
[2]
  IC50: < 250 nM
[3]
  IC50: 250 to 1000 nM

## CC(C)c1cc2c(cc1[C@@H](C)C1(C)CNC1)N1C(=NNC(=O)[C@H]1C)CO2 [Example 133, (R)-7-Isopropyl-4-methyl-6-[(R)-1-(3-methyl-azetidin-3-yl)-ethyl]-2,10-dihydro-9-oxa-1,2,4a-triaza-phenanthren-3-one hydrochloric acid]
[1]
  EC50: 250 to 1000 nM
[2]
  IC50: 250 to 1000 nM
[3]
  IC50: 1000 to 10000 nM

## CC[C@H]1CN(C)CCN1c1cc2c(cc1-c1ccccc1F)OCC1=NNC(=O)[C@@H](C)N12 [Example 234]
[1]
  EC50: 250 to 1000 nM
[2]
  IC50: < 250 nM
[3]
  IC50: 1000 to 10000 nM

## CC[C@@H]1CN(C)CCN1c1cc2c(cc1-c1ccccc1F)OCC1=NNC(=O)[C@@H](C)N12 [Example 233]
[1]
  EC50: < 250 nM
[2]
  IC50: < 250 nM
[3]
  IC50: 250 to 1000 nM

## C[C@@H]1C(=O)NN=C2COc3cc(-c4ccccc4F)c(N4CCNCC4)cc3N21 [Example 222, (R)-7-(2-Fluoro-phenyl)-4-methyl-6-piperazin-1-yl-2,10-dihydro-9-oxa-1,2,4a-triaza-phenanthren-3-one]
[1]
  EC50: 250 to 1000 nM
[2]
  IC50: < 250 nM
[3]
  IC50: 1000 to 10000 nM

## CC1C(=O)NN=C2COc3cc(C(F)(F)F)c(CC4CNC4)cc3N21 (stereo not drawn) [Example 99, 6-Azetidin-3-ylmethyl-4-methyl-7-trifluoromethyl-2,10-dihydro-9-oxa-1,2,4a-triaza-phenanthren-3-one trifluoroacetic acid]
[1]
  EC50: 250 to 1000 nM
[2]
  IC50: < 250 nM
[3]
  IC50: 1000 to 10000 nM

## C[C@H]1C(=O)NN=C2COc3cc(-c4ccccc4F)c(N(C)[C@]4(C)CCN(C)C4)cc3N21 (single isomer, unassigned) [Example 198-2]
[1]
  EC50: 1000 to 10000 nM
[2]
  IC50: < 250 nM
[3]
  IC50: 1000 to 10000 nM

## C[C@H]1C(=O)NN=C2COc3cc(C4CC4)c(NC4CNC4)cc3N21 (single isomer, unassigned) [Example 64-2, trifluoroacetic acid]
[1]
  EC50: 1000 to 10000 nM
[2]
  IC50: 250 to 1000 nM
[3]
  IC50: 1000 to 10000 nM

## COc1cccc(-c2cc3c(cc2NC2CNC2)N2C(=NNC(=O)C2C)CO3)c1 (racemic) [Example 20]
[1]
  EC50: < 250 nM
[2]
  IC50: < 250 nM
[3]
  IC50: 1000 to 10000 nM

## C[C@@H]1C(=O)NN=C2COc3cc(-c4ccccc4Cl)c(NC4CNC4)cc3N21 [Example 2]
[1]
  EC50: < 250 nM
[2]
  IC50: < 250 nM
[3]
  IC50: 250 to 1000 nM

## CC(C)c1cc2c(cc1C1CCN(C)CC1)N1C(=NNC(=O)[C@H]1C)CO2 [Example 219]
[1]
  EC50: < 250 nM
[2]
  IC50: < 250 nM
[3]
  IC50: 1000 to 10000 nM

## CC1CNCCC1c1ccc2c(c1)N1C(=NNC(=O)C1C)CO2 (stereo not drawn) [Example 73]
[1]
  EC50: 1000 to 10000 nM
[2]
  IC50: 250 to 1000 nM
[3]
  IC50: 1000 to 10000 nM

## C[C@@H]1C(=O)NN=C2COc3cc(-c4ccccc4F)c([C@H]4CCCNCC4)cc3N21 [Example 217]
[1]
  EC50: 250 to 1000 nM
[2]
  IC50: < 250 nM
[3]
  IC50: 1000 to 10000 nM

## Cc1ccccc1-c1cc2c(cc1NC1CNC1)N1C(=NNC(=O)C1C)CO2 (racemic) [Example 48]
[1]
  EC50: < 250 nM
[2]
  IC50: < 250 nM
[3]
  IC50: 1000 to 10000 nM

## C[C@@H]1C(=O)NN=C2COc3cc(-c4c(Cl)cccc4N4CCNCC4)ccc3N21 [Example 131]
[1]
  EC50: 250 to 1000 nM
[2]
  IC50: < 250 nM
[3]
  IC50: 1000 to 10000 nM

## CC1C(=O)NN=C2CCc3ccc(NC4CNC4)cc3N21 (stereo not drawn) [Example 108, 9-(Azetidin-3-ylamino)-1-methyl-5,6-dihydro-1H-[1,2,4]triazino[4,3-a]quinolin-2(3H)-one hydrochloric acid]
[1]
  EC50: < 250 nM
[2]
  IC50: < 250 nM
[3]
  IC50: 250 to 1000 nM

## Cc1ccccc1-c1cc2c(cc1NC1CNC1)N1C(=NNC(=O)[C@H]1C)CO2 [Example 5]
[1]
  EC50: < 250 nM
[2]
  IC50: < 250 nM
[3]
  IC50: 1000 to 10000 nM

## C[C@H]1C(=O)NN=C2COc3cc(-c4ccccc4F)c(N(C)[C@@]4(C)CCN(C)C4)cc3N21 (single isomer, unassigned) [Example 198-1]
[1]
  EC50: 1000 to 10000 nM
[2]
  IC50: < 250 nM
[3]
  IC50: 1000 to 10000 nM

## CC1C(=O)NN=C2COc3cc(C4CC4)c(C4CCNCC4)cc3N21 (stereo not drawn) [Example 77, 7-Cyclopropyl-4-methyl-6-piperidin-4-yl-2,10-dihydro-9-oxa-1,2,4a-triaza-phenanthren-3-one trifluoroacetic acid]
[1]
  EC50: 250 to 1000 nM
[2]
  IC50: < 250 nM
[3]
  IC50: 1000 to 10000 nM

## C[C@@H]1C(=O)NN=C2COc3cc(F)c(OC4CNC4)cc3N21 [Example 124, (R)-9-(Azetidin-3-yloxy)-8-fluoro-1-methyl-3,5-dihydrobenzo[5,6][1,4]oxazino[3,4-c][1,2,4]triazin-2(1H)-one trifluoroacetic acid]
[1]
  EC50: < 250 nM
[2]
  IC50: < 250 nM
[3]
  IC50: 1000 to 10000 nM

## CC1C(=O)NN=C2COc3cc(C4CC4)c(OC4CNC4)cc3N21 (stereo not drawn) [Example 65, 6-(Azetidin-3-yloxy)-7-cyclopropyl-4-methyl-2,10-dihydro-9-oxa-1,2,4a-triaza-phenanthren-3-one trifluoroacetic acid]
[1]
  EC50: < 250 nM
[2]
  IC50: < 250 nM
[3]
  IC50: 1000 to 10000 nM
